Laboratory results taken from US8987195B2 (priority 2012, dated 2015).
Read-outs that look alike come from different tables or passages of the source.

Legend:
[1] = test system: HCV genotype 1b replicon; experiment: HCV replicon assay, genotype 1b replicon EC50; format: cell-based, Hepatitis C virus; conditions: Hepatitis C virus, HCV replicon, genotype 1b, read-out: EC50 [gt-1b]
How it was run: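 Potency comes from a four-parameter fit of signal as percent of DMSO control. Replicon-bearing cells were treated 24-48 hours with a compound dilution series in absence of G418, and replicon RNA was quantified normalized to cyclophilin A RNA, or luciferase read.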

[2] = target: HCV NS3/4A protease genotype 1b (Hepatitis C virus genotype 1b, UniProt P26663); experiment: HCV NS3/4A protease time-resolved fluorescence (TRF) assay, Ki against genotype 1b; format: biochemical; conditions: IC50 [gt-1b], NS3/4A protease TRF assay, genotype 1b enzyme 0.2 nM
How it was run: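 Enzyme 0.2 nM 1b / 0.4 nM A156T / 0.025 nM 3a; 30 min preinc. w/ cpd; 25 nM TRF peptide; 2.5 h RT; ex 340/em 615 time-delayed; 4-param IC50 → Ki = IC50/(1+[S]/KM).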

Row | SMILES | EC50 [1] [nM] | IC50 [2] [nM] | EC50 ([1]; K+ salt) [nM] | IC50 ([2]; K+ salt) [nM]
1 | CC(C)OC(=O)N[C@H]1CCCCC/C=C\[C@@H]2C[C@@]2(C(=O)NS(=O)(=O)C2(C)CC2)NC(=O)[C@@H]2C[C@]3(CCc4c(c(C(F)(F)F)nc5ccc(Cl)cc45)O3)CN2C1=O [Example 385, propan-2-yl [(2R,6S,12Z,13aS,14aR,16aS)-9′-chloro-14a-{[(1-methylcyclopropyl)sulfonyl]carbamoyl}-5,16-dioxo-5′-(trifluoromethyl)-1,1′,2′,5,6,7,8,9,10,11,13a,14,14a,15,16,16a-hexadecahydrospiro[cyclopropa[e]pyrrolo[1,2-a][1,4]diazacyclopentadecine-2,3′-pyrano[2,3-c]quinolin]-6-yl]carbamate] | 6.79 | 0.017 | – | –
2 | CC(C)(C)COC(=O)N[C@H]1CCCCC/C=C\[C@@H]2C[C@@]2(C(=O)NS(=O)(=O)C2(C)CC2)NC(=O)[C@@H]2C[C@]3(CCc4c(c(C(F)(F)F)nc5ccc(Cl)cc45)O3)CN2C1=O [Example 386, 2,2-dimethylpropyl [(2R,6S,12Z,13aS,14aR,16aS)-9′-chloro-14a-{[(1-methylcyclopropyl)sulfonyl]carbamoyl}-5,16-dioxo-5′-(trifluoromethyl)-1,1′,2′,5,6,7,8,9,10,11,13a,14,14a,15,16,16a-hexadecahydrospiro[cyclopropa[e]pyrrolo[1,2-a][1,4]diazacyclopentadecine-2,3′-pyrano[2,3-c]quinolin]-6-yl]carbamate] | 49.6 | 0.029 | – | –
3 | CC(C)(OC(=O)N[C@H]1CCCCC/C=C\[C@@H]2C[C@@]2(C(=O)NS(=O)(=O)C2(C)CC2)NC(=O)[C@@H]2C[C@]3(CCc4c(c(C(F)(F)F)nc5ccc(Cl)cc45)O3)CN2C1=O)C(F)(F)F [Example 387, 1,1,1-trifluoro-2-methylpropan-2-yl [(2R,6S,12Z,13aS,14aR,16aS)-9′-chloro-14a-{[(1-methylcyclopropyl)sulfonyl]carbamoyl}-5,16-dioxo-5′-(trifluoromethyl)-1,1′,2′,5,6,7,8,9,10,11,13a,14,14a,15,16,16a-hexadecahydrospiro[cyclopropa[e]pyrrolo[1,2-a][1,4]diazacyclopentadecine-2,3′-pyrano[2,3-c]quinolin]-6-yl]carbamate] | 20.1 | 0.038 | – | –
4 | COc1ccc2nc(C(C)C)c3c(c2c1)[C@H](F)C[C@]1(C[C@H]2C(=O)N[C@]4(C(=O)NS(=O)(=O)C5(C)CC5)C[C@H]4/C=C\CCCCC[C@H](NC(=O)OCC(C)(C)C)C(=O)N2C1)O3 [Example 388, 2,2-dimethylpropyl [(1′R,2S,6S,12Z,13aS,14aR,16aS)-1′-fluoro-9′-methoxy-14a-{[(1-methylcyclopropyl)sulfonyl]carbamoyl}-5,16-dioxo-5′-(propan-2-yl)-1,1′,2′,5,6,7,8,9,10,11,13a,14,14a,15,16,16a-hexadecahydrospiro[cyclopropa[e]pyrrolo[1,2-a][1,4]diazacyclopentadecine-2,3′-pyrano[2,3-c]quinolin]-6-yl]carbamate] | 1.31 | 0.028 | – | –
5 | Cc1ccc2nc(C(F)(F)F)c3c(c2c1)CC[C@]1(C[C@H]2C(=O)N[C@]4(C(=O)NS(=O)(=O)C5(C)CC5)C[C@H]4/C=C\CCCCC[C@H](NC(=O)OC(C)(C)C)C(=O)N2C1)O3 [Example 389, tert-butyl [(2R,6S,12Z,13aS,14aR,16aS)-9′-methyl-14a-{[(1-methylcyclopropyl)sulfonyl]carbamoyl}-5,16-dioxo-5′-(trifluoromethyl)-1,1′,2′,5,6,7,8,9,10,11,13a,14,14a,15,16,16a-hexadecahydrospiro[cyclopropa[e]pyrrolo[1,2-a][1,4]diazacyclopentadecine-2,3′-pyrano[2,3-c]quinolin]-6-yl]carbamate] | 2.61 | 0.011 | – | –
6 | Cc1ccc2nc(C(F)(F)F)c3c(c2c1)CC[C@]1(C[C@H]2C(=O)N[C@]4(C(=O)NS(=O)(=O)C5(C)CC5)C[C@H]4/C=C\CCCCC[C@H](NC(=O)OCC(C)C)C(=O)N2C1)O3 [Example 390, 2-methylpropyl [(2R,6S,12Z,13aS,14aR,16aS)-9′-methyl-14a-{[(1-methylcyclopropyl)sulfonyl]carbamoyl}-5,16-dioxo-5′-(trifluoromethyl)-1,1′,2′,5,6,7,8,9,10,11,13a,14,14a,15,16,16a-hexadecahydrospiro[cyclopropa[e]pyrrolo[1,2-a][1,4]diazacyclopentadecine-2,3′-pyrano[2,3-c]quinolin]-6-yl]carbamate] | 15.5 | 0.015 | – | –
7 | [2H]C([2H])(F)Oc1ccc2nc(C)c3c(c2c1)[C@H](F)C[C@]1(C[C@H]2C(=O)N[C@]4(C(=O)NS(=O)(=O)C5(C)CC5)C[C@H]4/C=C\CCCCC[C@H](NC(=O)OCC(C)C)C(=O)N2C1)O3 [Example 402, 2-methylpropyl [(1′R,2S,6S,12Z,13aS,14aR,16aS)-1′-fluoro-9′-{[fluoro(^2H2)methyl]oxy}-5′-methyl-14a-{[(1-methylcyclopropyl)sulfonyl]carbamoyl}-5,16-dioxo-1,1′,2′,5,6,7,8,9,10,11,13a,14,14a,15,16,16a-hexadecahydrospiro[cyclopropa[e]pyrrolo[1,2-a][1,4]diazacyclopentadecine-2,3′-pyrano[2,3-c]quinolin]-6-yl]carbamate] | – | – | 2.27 | 0.011
8 | [2H]C([2H])(F)Oc1ccc2nc(C)c3c(c2c1)[C@H](F)C[C@]1(C[C@H]2C(=O)N[C@]4(C(=O)NS(=O)(=O)C5(C)CC5)C[C@H]4/C=C\CCCCC[C@H](NC(=O)OCC(C)(C)C)C(=O)N2C1)O3 [Example 403, 2,2-dimethylpropyl [(1′R,2S,6S,12Z,13aS,14aR,16aS)-1′-fluoro-9′-{[fluoro(^2H2)methyl]oxy}-5′-methyl-14a-{[(1-methylcyclopropyl)sulfonyl]carbamoyl}-5,16-dioxo-1,1′,2′,5,6,7,8,9,10,11,13a,14,14a,15,16,16a-hexadecahydrospiro[cyclopropa[e]pyrrolo[1,2-a][1,4]diazacyclopentadecine-2,3′-pyrano[2,3-c]quinolin]-6-yl]carbamate] | – | – | 1.92 | 0.013
9 | COc1ccc2nc(C)c3c(c2c1)[C@H](F)C[C@]1(C[C@H]2C(=O)N[C@]4(C(=O)NS(=O)(=O)C5(C)CC5)C[C@H]4/C=C\CCCCC[C@H](NC(=O)OC(C)C(C)(C)C)C(=O)N2C1)O3 (stereo partly drawn) [Example 404, 3,3-dimethylbutan-2-yl [(l′R,2S,6S,12Z,13aS,14aR,16aS)-1′-fluoro-9′-methoxy-5′-methyl-14a-{[(1-methylcyclopropyl)sulfonyl]carbamoyl}-5,16-dioxo-1,1′,2′,5,6,7,8,9,10,11,13a,14,14a,15,16,16a-hexadecahydrospiro[cyclopropa[e]pyrrolo[1,2-a][1,4]diazacyclopentadecine-2,3′-pyrano[2,3-c]quinolin]-6-yl]carbamate] | 1.23 | 0.018 | – | –
10 | Cc1nc2ccc(F)cc2c2c1O[C@]1(CC2)C[C@H]2C(=O)N[C@]3(C(=O)NS(=O)(=O)C4(C)CC4)C[C@H]3/C=C\CCCCC[C@H](NC(=O)OC(C)(C)C(F)(F)F)C(=O)N2C1 [Example 405, 1,1,1-trifluoro-2-methylpropan-2-yl [(2R,6S,12Z,13aS,14aR,16aS)-9′-fluoro-5′-methyl-14a-{[(1-methylcyclopropyl)sulfonyl]carbamoyl}-5,16-dioxo-1,1′,2′,5,6,7,8,9,10,11,13a,14,14a,15,16,16a-hexadecahydrospiro[cyclopropa[e]pyrrolo[1,2-a][1,4]diazacyclopentadecine-2,3′-pyrano[2,3-c]quinolin]-6-yl]carbamate] | 0.813 | 0.021 | – | –
11 | Cc1nc2ccc(F)cc2c2c1O[C@]1(CC2)C[C@H]2C(=O)N[C@]3(C(=O)NS(=O)(=O)C4(C)CC4)C[C@H]3/C=C\CCCCC[C@H](NC(=O)OCC(C)(C)C)C(=O)N2C1 [Example 406, 2,2-dimethylpropyl [(2R,6S,12Z,13aS,14aR,16aS)-9′-fluoro-5′-methyl-14a-{[(1-methylcyclopropyl)sulfonyl]carbamoyl}-5,16-dioxo-1,1′,2′,5,6,7,8,9,10,11,13a,14,14a,15,16,16a-hexadecahydrospiro[cyclopropa[e]pyrrolo[1,2-a][1,4]diazacyclopentadecine-2,3′-pyrano[2,3-c]quinolin]-6-yl]carbamate] | 1 | 0.013 | – | –
12 | COc1ccc2nc(C)c3c(c2c1)CC[C@]1(C[C@H]2C(=O)N[C@]4(C(=O)NS(=O)(=O)C5(C)CC5)C[C@H]4/C=C\CCCCC[C@H](NC(=O)OC(C(C)C)C(F)(F)F)C(=O)N2C1)O3 (stereo partly drawn) [Example 407, 1,1,1-trifluoro-3-methylbutan-2-yl [(2R,6S,12Z,13aS,14aR,16aS)-9′-methoxy-5′-methyl-14a-{[(1-methylcyclopropyl)sulfonyl]carbamoyl}-5,16-dioxo-1,1′,2′,5,6,7,8,9,10,11,13a,14,14a,15,16,16a-hexadecahydrospiro[cyclopropa[e]pyrrolo[1,2-a][1,4]diazacyclopentadecine-2,3′-pyrano[2,3-c]quinolin]-6-yl]carbamate] | – | – | 1.5 | 0.019
